How the values were obtained:
Assay in all cases: relative viability (nuclei count vs DMSO), 5 days (fraction); higher = more cells survive
[1] = compound: C1COCCN1C2=NC(=NC3=C2OC4=C3C=CC=N4)C5=CC(=CC=C5)NC(=O)C6=CN=C(C=C6)N + CS(=O)(=O)CCNCc1ccc(-c2ccc3ncnc(Nc4ccc(OCc5cccc(F)c5)c(Cl)c4)c3c2)o1 [Lapatinib] (partner 2 µM)
Method in brief: (§1)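 For relative viability, nuclei counts in treated wells were divided by those in vehicle wells. Lung cancer cell lines had been pin-tool dosed in 1536-well plates the day after seeding and cultured for 5 days, then fixed and stained in one step (final 0.05% Triton X-100, 1% formaldehyde, 1 ug/ml Hoechst) and imaged at 4×. Doses were one drug alone or a fixed anchor-drug dose plus five library-drug doses (not always all listed) in √10 steps, and values are duplicate-plate medians.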

[2] = compound: CN1CCC(CNc2ccc3ncc(-c4cccc(OC(F)(F)F)c4)n3n2)CC1 [SGI-1776] + CC(=O)Nc1cccc(-n2c(=O)n(C3CC3)c(=O)c3c(Nc4ccc(I)cc4F)n(C)c(=O)c(C)c32)c1 [Trametinib] (partner 0.02 µM)
Method in brief: as §1

[3] = compound: CN1CCC(CNc2ccc3ncc(-c4cccc(OC(F)(F)F)c4)n3n2)CC1 [SGI-1776] + CS(=O)(=O)CCNCc1ccc(-c2ccc3ncnc(Nc4ccc(OCc5cccc(F)c5)c(Cl)c4)c3c2)o1 [Lapatinib] (partner 2 µM)
Method in brief: as §1

[4] = compound: CN1CCC(CNc2ccc3ncc(-c4cccc(OC(F)(F)F)c4)n3n2)CC1 [SGI-1776] + Cc1nc(Nc2ncc(C(=O)Nc3c(C)cccc3Cl)s2)cc(N2CCN(CCO)CC2)n1 [Dasatinib] (partner 0.075 µM)
Method in brief: as §1

| Cell Line | relative viability ([1]; first compound 0.02 µM) | relative viability ([1]; first compound 0.06325 µM) | relative viability ([1]; first compound 0.2 µM) | relative viability ([1]; first compound 0.6325 µM) | relative viability ([1]; first compound 2 µM) | relative viability ([2]; first compound 0.08 µM) | relative viability ([2]; first compound 0.8 µM) | relative viability ([2]; first compound 2.53 µM) | relative viability ([2]; first compound 8 µM) | relative viability ([3]; first compound 0.08 µM) | relative viability ([3]; first compound 0.8 µM) | relative viability ([3]; first compound 2.53 µM) | relative viability ([3]; first compound 8 µM) | relative viability ([4]; first compound 0.08 µM) | relative viability ([4]; first compound 0.8 µM) | relative viability ([4]; first compound 2.53 µM) | relative viability ([4]; first compound 8 µM) |
| --- | --- | --- | --- | --- | --- | --- | --- | --- | --- | --- | --- | --- | --- | --- | --- | --- | --- |
| NCI-H1993 | 0.787 | 0.822 | 0.841 | 0.826 | 0.814 | 0.576 | 0.496 | 0.765 | 0.538 | 0.839 | 0.958 | 0.841 | 0.636 | 0.584 | 0.651 | 0.55 | 0.528 |
| COR-L23 | 0.946 | 1.26 | 1.15 | 1.24 | 0.451 | 0.694 | 0.619 | 0.613 | 0.408 | 1.1 | 0.9 | 0.914 | 0.922 | 0.514 | 0.546 | 0.464 | 0.322 |
| LU99A | 1.1 | 1.04 | 0.92 | 0.64 | 0.35 | 0.62 | 0.594 | 0.542 | 0.515 | 1.03 | 1.16 | 1.07 | 0.902 | 0.727 | 0.56 | 0.382 | 0.441 |
| NCI-H460 | 0.907 | 1.12 | 1.11 | 0.578 | 0.0915 | 0.127 | 0.162 | 0.208 | 0.154 | 1.16 | 0.978 | 1.13 | 0.863 | 0.52 | 0.543 | 0.508 | 0.299 |
| NCI-H650 | 0.913 | 0.915 | 0.891 | 1.02 | 0.517 | 1.09 | 1.01 | 0.965 | 0.869 | 0.99 | 0.955 | 0.747 | 0.795 | 0.492 | 0.497 | 0.434 | 0.37 |
| NCI-H1975 | 0.836 | 0.841 | 0.817 | 0.874 | 0.395 | 0.389 | 0.33 | 0.325 | 0.313 | 0.922 | 0.928 | 0.899 | 0.838 | 0.385 | 0.369 | 0.253 | 0.232 |
| NCI-H1355 | 0.95 | 1.01 | 0.997 | 0.936 | 0.814 | 0.444 | 0.408 | 0.408 | 0.41 | 0.915 | 0.989 | 1.01 | 0.799 | 0.778 | 0.722 | 0.52 | 0.604 |
| NCI-H1755 | 1.09 | 1.12 | 1.05 | 1.02 | 0.653 | 0.802 | 0.741 | 0.762 | 0.651 | 0.995 | 1.09 | 0.967 | 0.788 | 0.454 | 0.437 | 0.351 | 0.287 |
| NCI-H2009 | 0.933 | 0.944 | 0.889 | 0.89 | 0.792 | 0.345 | 0.303 | 0.234 | 0.175 | 0.985 | 0.897 | 1 | 0.766 | 0.373 | 0.291 | 0.231 | 0.15 |
| LK-2 | 1.14 | 1.11 | 0.828 | 0.776 | 0.563 | 0.778 | 0.69 | 0.63 | 0.708 | 1.13 | 1.06 | 0.781 | 0.75 | 0.301 | 0.354 | 0.253 | 0.173 |
| HCC-78 | 0.671 | 0.792 | 0.767 | 0.762 | 0.72 | 0.772 | 0.804 | 0.693 | 0.72 | 0.848 | 0.7 | 0.783 | 0.698 | 0.416 | 0.455 | 0.369 | 0.366 |
| NCI-H3122 | 0.958 | 1.08 | 1.04 | 1.07 | 0.88 | 0.238 | 0.19 | 0.274 | 0.244 | 0.964 | 1.05 | 1.07 | 0.988 | 0.877 | 0.76 | 0.96 | 0.821 |
| HOP-62 | 0.945 | 1.42 | 1.06 | 0.925 | 0.531 | 0.384 | 0.359 | 0.437 | 0.367 | 1.19 | 0.954 | 1.16 | 0.928 | 0.724 | 0.679 | 0.531 | 0.597 |
| NCI-H661 | 0.53 | 0.554 | 0.525 | 0.351 | 0.406 | 0.596 | 0.534 | 0.525 | 0.466 | 0.509 | 0.533 | 0.646 | 0.439 | 1 | 0.979 | 0.837 | 0.692 |
| NCI-H358 | 0.438 | 0.45 | 0.34 | 0.387 | 0.355 | 0.14 | 0.146 | 0.128 | 0.123 | 0.434 | 0.469 | 0.352 | 0.292 | 0.197 | 0.186 | 0.158 | 0.133 |
| BEN | 0.765 | 0.702 | 0.744 | 0.673 | 0.588 | 1.03 | 1.24 | 0.991 | 0.791 | 0.695 | 0.739 | 0.705 | 0.532 | 0.399 | 0.313 | 0.285 | 0.302 |

| Cell Line | relative viability ([1]; first compound 0.02 µM) | relative viability ([1]; first compound 0.06325 µM) | relative viability ([1]; first compound 0.2 µM) | relative viability ([1]; first compound 0.6325 µM) | relative viability ([1]; first compound 2 µM) | relative viability ([2]; first compound 0.08 µM) | relative viability ([2]; first compound 0.8 µM) | relative viability ([2]; first compound 2.53 µM) | relative viability ([2]; first compound 8 µM) | relative viability ([3]; first compound 0.08 µM) | relative viability ([3]; first compound 0.8 µM) | relative viability ([3]; first compound 2.53 µM) | relative viability ([3]; first compound 8 µM) | relative viability ([4]; first compound 0.08 µM) | relative viability ([4]; first compound 0.8 µM) | relative viability ([4]; first compound 2.53 µM) | relative viability ([4]; first compound 8 µM) |
| --- | --- | --- | --- | --- | --- | --- | --- | --- | --- | --- | --- | --- | --- | --- | --- | --- | --- |
| SK-MES-1 | 0.455 | 0.492 | 0.431 | 0.424 | 0.312 | 0.546 | 0.521 | 0.494 | 0.324 | 0.494 | 0.447 | 0.449 | 0.404 | 0.476 | 0.415 | 0.35 | 0.211 |
| NCI-H1792 | 0.882 | 0.904 | 0.874 | 0.925 | 0.376 | 0.446 | 0.446 | 0.437 | 0.324 | 0.908 | 0.988 | 0.867 | 0.756 | 0.781 | 0.742 | 0.637 | 0.491 |
| NCI-H2085 | 0.77 | 0.771 | 0.744 | 0.726 | 0.65 | 0.665 | 0.612 | 0.511 | 0.453 | 0.838 | 0.847 | 0.748 | 0.687 | 0.248 | 0.264 | 0.243 | 0.201 |
| 201T | 0.957 | 1.02 | 0.984 | 1.04 | 1.01 | 0.702 | 0.77 | 0.711 | 0.702 | 1 | 0.981 | 1.02 | 0.942 | 0.603 | 0.555 | 0.47 | 0.471 |
| NCI-H2023 | 0.759 | 0.798 | 0.618 | 0.565 | 0.471 | 0.539 | 0.508 | 0.491 | 0.312 | 0.918 | 1.21 | 1.04 | 0.219 | 0.637 | 0.523 | 0.432 | 0.254 |
| NCI-H1395 | 0.782 | 1.13 | 0.91 | 0.983 | 0.831 | 1.16 | 0.984 | 0.951 | 0.887 | 1.16 | 1.04 | 1.07 | 0.781 | 0.381 | 0.379 | 0.394 | 0.373 |
| NCI-H23 | 1.43 | 1.15 | 1.18 | 0.988 | 0.719 | 0.328 | 0.29 | 0.372 | 0.304 | 1.21 | 0.984 | 0.917 | 1.17 | 0.819 | 0.84 | 0.813 | 0.831 |
| LXF-289 | 0.939 | 0.97 | 0.99 | 0.9 | 0.696 | 0.68 | 0.64 | 0.668 | 0.606 | 0.945 | 0.941 | 0.893 | 0.895 | 0.222 | 0.224 | 0.148 | 0.161 |
| EKVX | 0.189 | 0.181 | 0.221 | 0.215 | 0.207 | 0.386 | 0.342 | 0.344 | 0.31 | 0.225 | 0.205 | 0.209 | 0.166 | 0.475 | 0.547 | 0.599 | 0.413 |
| LC-2-ad | 0.948 | 0.939 | 0.968 | 1.03 | 0.537 | 0.885 | 0.926 | 0.931 | 0.822 | 1.04 | 0.95 | 1.01 | 0.88 | 0.726 | 0.521 | 0.397 | 0.402 |
| NCI-H596 | 0.997 | 1.04 | 1 | 0.997 | 0.765 | 0.797 | 0.733 | 0.782 | 0.678 | 1.08 | 1.06 | 0.906 | 0.825 | 0.571 | 0.528 | 0.51 | 0.441 |
| NCI-H1734 | 1.18 | 1.09 | 0.935 | 0.902 | 0.558 | 0.686 | 0.742 | 0.786 | 0.603 | 1.13 | 1.05 | 1.11 | 0.938 | 0.55 | 0.426 | 0.441 | 0.434 |
| LOU-NH91 | 0.764 | 0.826 | 0.725 | 0.769 | 0.715 | 0.808 | 0.766 | 0.806 | 0.695 | 0.818 | 0.824 | 0.75 | 0.588 | 0.571 | 0.597 | 0.555 | 0.43 |
| NCI-H2170 | 0.245 | 0.265 | 0.251 | 0.286 | 0.297 | 0.925 | 0.924 | 0.855 | 0.912 | 0.263 | 0.269 | 0.275 | 0.275 | 0.651 | 0.527 | 0.354 | 0.434 |
| NCI-H1793 | 0.884 | 0.971 | 0.575 | 0.56 | 0.405 | 0.418 | 0.518 | 0.589 | 0.444 | 0.701 | 0.749 | 0.668 | 0.974 | 0.395 | 0.332 | 0.382 | 0.405 |
